The results in this text go back to patent US11111245B2, “Derivatives of N-cycloalkyl/heterocycloalkyl-4-(imidazo[1,2-a]pyridine)pyrimidin-2-amine as therapeutic agents” (Aucentra Therapeutics Pty Ltd, priority 2017, dated 2021).

The subject of assay [1] is leukemia cell lines. As to the kind of experiment: Resazurin cell viability assay on leukemia cell lines (72 h growth inhibition, GI50). It counts as cell-based. As to conditions: Homo sapiens, MV4-11 cells. The method in brief: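 MTT assay for solid tumour lines and resazurin assay for leukaemia lines, run by reported methods. GI50, the concentration giving 50% growth inhibition, was obtained by non-linear regression.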
For orientation: The colour change of resazurin is a common sign of viable cells or microbes.

Assay [2] addresses CDK4/D1 (Homo sapiens, UniProt P11802). As to the kind of experiment: ADP Glo Kinase assay CDK4/D1. It is filed as biochemical. Particulars: CDK4D1; for remaining activity at 10 µM: compound at 10 μM, read-out: residual activity (%) at 10 μM CDK4D1; for Ki: read-out: CDK inhibition, Ki (μM) CDK4D1. Put shortly:
(§1)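 In-house ADP-Glo assay: CDK4/D1 or CDK6/D3 with RB-CTF substrate in […] Tris pH 7.5, 20 mM MgCl2, 0.4 mM DTT, 0.1 mg/ml BSA; ATP-started, 40 min at 37° C.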

Assay [3] addresses T1, CDKs and other kinases (Homo sapiens, UniProt P06493).
T1 construct: other: CDK1B; residual activity (%) at 10 μM CDK1B; compound at 10 μM
As to the kind of experiment: Radiometric kinase assay (Eurofins Pharma Discovery or Reaction Biology Corporation Kinase Profiler). It counts as biochemical. As to conditions: CDK1B; for Ki: read-out: CDK inhibition, Ki (μM) CDK1B; for remaining activity at 10 µM: compound at 10 μM, read-out: residual activity (%) at 10 μM CDK1B. Put shortly:
(§2)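 Other CDKs and further kinases were profiled externally by radiometric assay. In-house ADP Glo assays covered CDK4/D1 and CDK6/D3 (RB-CTF substrate, pH 7.5 Tris buffer with MgCl2, DTT, BSA) and CDK9/T1 (RBER-IRStide substrate), 40 min at 37° C.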

In assay [4] the target is T2, CDKs and other kinases (Homo sapiens, UniProt P24941).
T2 construct: other: CDK2A; residual activity (%) at 10 μM CDK2A; compound at 10 μM
The description is as above. Particulars: CDK2A; for Ki: read-out: CDK inhibition, Ki (μM) CDK2A; for remaining activity at 10 µM: compound at 10 μM, read-out: residual activity (%) at 10 μM CDK2A. It counts as biochemical. Put shortly:
as §2

Assay [5] addresses T3, CDKs and other kinases (Homo sapiens, UniProt P50613).
T3 construct: other: CDK7H; residual activity (%) at 10 μM CDK7H; compound at 10 μM
Described as above. It counts as biochemical. As to conditions: CDK7H; for Ki: read-out: CDK inhibition, Ki (μM) CDK7H; for remaining activity at 10 µM: compound at 10 μM, read-out: residual activity (%) at 10 μM CDK7H. The method in brief: as §2

Assay [6] concerns the target CDK9/T1 (Homo sapiens, UniProt P50750). As to the kind of experiment: ADP Glo Kinase assay CDK9/T1. It counts as biochemical. Particulars: CDK9T1; read-out: CDK inhibition, Ki (μM) CDK9T1. Put shortly:
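CDK4/D1 and CDK6/D3 were run in […] Tris pH 7.5, 20 mM MgCl2, 0.4 mM DTT, 0.1 mg/ml BSA with RB-CTF substrate; CDK9/T1 used RBER-IRStide. ATP-started reactions ran 40 min at 37° C, with ADP Glo luminescence read-out. IC50 came from 4-parameter fits; Ki from Km (ATP) and IC50.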
(In general: ADP-Glo turns the ADP formed in a reaction into a luminescent signal.)

Assay [7] concerns the target CDK6/D3 (Homo sapiens, UniProt Q00534). As to the kind of experiment: ADP Glo Kinase assay CDK6/D3. It counts as biochemical. Particulars: CDK6D3; for remaining activity at 10 µM: compound at 10 μM, read-out: residual activity (%) at 10 μM CDK6D3. The method in brief: as §1

Usually GI50 stands for the concentration at which growth is held to half of that of the control. Read a low GI50 as more potent growth inhibition. In general, Ki refers to the dissociation constant of the complex between target and ligand, obtained from inhibition or displacement. By residual activity is commonly meant the signal under treatment as a percentage of the control signal.

CDK4/D1, sequence (P11802 whole entry): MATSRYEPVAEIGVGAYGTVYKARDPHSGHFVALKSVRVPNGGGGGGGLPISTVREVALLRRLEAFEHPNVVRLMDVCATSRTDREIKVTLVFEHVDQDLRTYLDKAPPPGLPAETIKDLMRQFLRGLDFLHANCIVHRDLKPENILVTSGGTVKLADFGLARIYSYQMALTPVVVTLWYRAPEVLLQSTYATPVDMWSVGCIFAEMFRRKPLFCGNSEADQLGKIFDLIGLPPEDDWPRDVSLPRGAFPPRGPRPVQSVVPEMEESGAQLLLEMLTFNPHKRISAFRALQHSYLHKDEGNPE
CDK4/D1, sequence (P24385 whole entry partner): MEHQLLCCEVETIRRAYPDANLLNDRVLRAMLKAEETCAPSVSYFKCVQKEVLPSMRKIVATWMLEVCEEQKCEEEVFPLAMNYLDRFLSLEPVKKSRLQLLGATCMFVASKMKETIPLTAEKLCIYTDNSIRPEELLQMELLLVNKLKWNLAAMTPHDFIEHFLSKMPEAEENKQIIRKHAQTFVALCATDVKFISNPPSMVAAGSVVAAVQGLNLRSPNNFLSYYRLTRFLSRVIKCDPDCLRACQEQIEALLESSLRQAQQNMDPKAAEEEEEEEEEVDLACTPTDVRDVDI
T3 sequence (P50613 whole entry): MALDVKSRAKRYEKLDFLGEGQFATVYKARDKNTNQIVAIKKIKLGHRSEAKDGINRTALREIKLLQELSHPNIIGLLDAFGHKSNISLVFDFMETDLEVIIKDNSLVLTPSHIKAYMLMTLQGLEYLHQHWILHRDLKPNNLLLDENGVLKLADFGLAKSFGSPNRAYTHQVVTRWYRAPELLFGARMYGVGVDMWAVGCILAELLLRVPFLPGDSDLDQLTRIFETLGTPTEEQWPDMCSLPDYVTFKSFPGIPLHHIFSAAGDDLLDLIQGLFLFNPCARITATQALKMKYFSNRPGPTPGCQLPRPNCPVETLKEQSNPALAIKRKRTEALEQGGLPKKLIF
CDK9/T1, sequence (P50750 whole entry): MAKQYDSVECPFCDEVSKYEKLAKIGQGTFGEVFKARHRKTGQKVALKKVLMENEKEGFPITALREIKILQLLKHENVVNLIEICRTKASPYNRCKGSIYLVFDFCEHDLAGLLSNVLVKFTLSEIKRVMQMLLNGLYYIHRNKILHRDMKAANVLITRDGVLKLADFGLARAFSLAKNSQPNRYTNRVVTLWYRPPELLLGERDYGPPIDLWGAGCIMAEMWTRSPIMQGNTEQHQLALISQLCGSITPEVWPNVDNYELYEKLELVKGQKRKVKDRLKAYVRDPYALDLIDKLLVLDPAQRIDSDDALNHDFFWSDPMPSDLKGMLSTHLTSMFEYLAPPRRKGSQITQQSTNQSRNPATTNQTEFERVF
CDK9/T1, sequence (O60563 whole entry partner): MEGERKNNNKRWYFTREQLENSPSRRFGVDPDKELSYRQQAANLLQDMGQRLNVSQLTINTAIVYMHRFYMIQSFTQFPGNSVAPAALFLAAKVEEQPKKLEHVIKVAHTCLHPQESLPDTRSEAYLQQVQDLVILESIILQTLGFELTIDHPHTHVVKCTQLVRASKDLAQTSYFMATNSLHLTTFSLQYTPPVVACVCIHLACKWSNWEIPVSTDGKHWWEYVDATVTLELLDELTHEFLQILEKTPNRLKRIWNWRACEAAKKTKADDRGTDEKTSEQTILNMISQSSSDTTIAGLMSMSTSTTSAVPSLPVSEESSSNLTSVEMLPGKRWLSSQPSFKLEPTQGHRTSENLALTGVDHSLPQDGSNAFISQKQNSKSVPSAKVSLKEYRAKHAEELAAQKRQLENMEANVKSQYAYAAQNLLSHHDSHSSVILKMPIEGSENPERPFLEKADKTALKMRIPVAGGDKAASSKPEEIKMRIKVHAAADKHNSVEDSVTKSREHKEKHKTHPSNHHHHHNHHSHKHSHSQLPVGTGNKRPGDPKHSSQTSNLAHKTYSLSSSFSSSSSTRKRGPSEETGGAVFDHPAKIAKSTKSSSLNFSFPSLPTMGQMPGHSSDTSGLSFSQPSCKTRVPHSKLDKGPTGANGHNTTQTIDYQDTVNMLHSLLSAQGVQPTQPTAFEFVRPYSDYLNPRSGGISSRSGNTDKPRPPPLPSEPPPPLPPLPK
T1 sequence (P06493 whole entry): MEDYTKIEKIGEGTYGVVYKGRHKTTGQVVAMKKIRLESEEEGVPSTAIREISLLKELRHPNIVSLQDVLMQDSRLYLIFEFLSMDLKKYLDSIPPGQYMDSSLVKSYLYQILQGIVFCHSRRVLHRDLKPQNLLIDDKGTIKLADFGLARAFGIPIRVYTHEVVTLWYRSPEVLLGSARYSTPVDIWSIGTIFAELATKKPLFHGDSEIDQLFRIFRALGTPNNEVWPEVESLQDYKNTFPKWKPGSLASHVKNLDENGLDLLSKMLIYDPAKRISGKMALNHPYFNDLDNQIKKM
CDK6/D3, sequence (Q00534 whole entry): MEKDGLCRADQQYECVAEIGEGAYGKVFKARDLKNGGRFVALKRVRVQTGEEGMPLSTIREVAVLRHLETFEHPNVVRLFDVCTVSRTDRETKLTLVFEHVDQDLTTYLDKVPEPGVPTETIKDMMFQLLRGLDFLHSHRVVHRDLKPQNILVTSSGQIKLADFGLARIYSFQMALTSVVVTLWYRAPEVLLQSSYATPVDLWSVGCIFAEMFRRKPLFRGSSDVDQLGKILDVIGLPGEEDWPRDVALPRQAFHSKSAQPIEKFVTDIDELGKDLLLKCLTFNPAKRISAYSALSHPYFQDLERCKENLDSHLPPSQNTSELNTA
CDK6/D3, sequence (P30281 whole entry partner): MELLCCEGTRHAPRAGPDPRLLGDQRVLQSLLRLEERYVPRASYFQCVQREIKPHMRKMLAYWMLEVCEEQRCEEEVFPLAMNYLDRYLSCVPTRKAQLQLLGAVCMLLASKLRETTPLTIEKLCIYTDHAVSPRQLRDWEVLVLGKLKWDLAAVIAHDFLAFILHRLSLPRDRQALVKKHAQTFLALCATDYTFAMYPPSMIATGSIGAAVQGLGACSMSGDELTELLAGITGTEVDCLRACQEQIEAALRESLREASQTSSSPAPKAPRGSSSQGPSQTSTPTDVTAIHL

Regarding `N[C@H]1CC[C@H](Nc2ncc(Cl)c(-c3cnc4c(Br)cc(C(F)(F)F)cn34)n2)CC1` [Compound 14, (1r,4r)-N^1-(4-(8-Bromo-6-(trifluoromethyl)imidazo[1,2-a]pyridin-3-yl)-5-chloropyrimidin-2-yl)cyclohexane-1,4-diamine], the 50% growth inhibitory concentration (GI50) in assay [1] is 0.368 ± 0.129 µM. In addition, the figures for the remaining activity at 10 µM in assay [2] and in assay [7] were 3% and 17%, respectively. The Ki in assay [3] came to 0.755 µM; in assay [4], 0.115 µM; in assay [5], 0.04 µM; in assay [6], 0.007 µM.

The compound `COc1ccc(-c2ccc3ncc(-c4nc(N[C@H]5CC[C@H](N)CC5)ncc4C)n3c2)cn1` [Compound 58, (1r,4r)-N^1-(4-(6-(6-Methoxypyridin-3-yl)imidazo[1,2-a]pyridin-3-yl)-5-methylpyrimidin-2-yl)cyclohexane-1,4-diamine] yielded a GI50 in assay [1] of 0.177 ± 0.005 µM. The remaining activity at 10 µM in assay [2] worked out at 69%; in assay [3] it was 71%; in assay [4], 70%; in assay [5], 22%; in assay [7], 86%. Besides, the Ki in assay [6] turned out to be 0.17 µM.

For the compound `Cc1cnc(N[C@H]2CC[C@H](N)CC2)nc1-c1cnc2ccc(Nc3cccnn3)cn12` [Compound 71, (1r,4r)-N^1-(5-Methyl-4-(6-(pyridazin-3-ylamino)imidazo [1,2-a]pyridin-3-yl)pyrimidin-2-yl)cyclohexane-1,4-diamine], in assay [1], the GI50 was 0.383 ± 0.119 µM. Also, the remaining activity at 10 µM in assay [2] turned out to be 35%; in assay [7], 66%. For the same compound, the Ki in assay [3] came out at 6.05 µM; in assay [4], 2.66 µM; in assay [5] it was 5.19 µM; in assay [6], 0.203 µM.

Consider `N[C@H]1CC[C@H](Nc2ncc(Cl)c(-c3cnc4ccc(-c5cccnc5)cn34)n2)CC1` [Compound 35, (1r,4r)-N^1-(5-Chloro-4-(6-(pyridin-3-yl)imidazo[1,2-a]pyridin-3-yl)pyrimidin-2-yl)cyclohexane-1,4-diamine], for which the 50% growth inhibitory concentration (GI50) in assay [1] was 0.011 ± 0.002 µM. Further, the Ki in assay [2] worked out at 0.79 µM; in assay [3] it was 0.88 µM; in assay [4], 0.26 µM; in assay [5], 0.27 µM; in assay [6], 0.007 µM; in assay [7] (read-out: CDK inhibition, Ki (μM) CDK6D3), 0.394 µM.

On to `N[C@H]1CC[C@H](Nc2ncc(F)c(-c3cnc4ccccn34)n2)CC1` [Compound 1, (1r,4r)-N^1-(5-Fluoro-4-(imidazo[1,2-a]pyridin-3-yl)pyrimidin-2-yl)cyclohexane-1,4-diamine], for which it took 0.046 ± 0.005 µM to inhibit growth in assay [1] by half (GI50). The Ki in assay [2] amounted to 0.025 µM; in assay [3], 0.077 µM; in assay [4] it was 0.018 µM; in assay [5], 0.026 µM; in assay [6] it was 0.006 µM. The remaining activity at 10 µM in assay [7] turned out to be 23%.

Compound `Cc1cnc(N[C@H]2CC[C@H](N)CC2)nc1-c1cnc2ccc(-c3ccc(S(=O)(=O)N(C)C)cc3)cn12` [Compound 62, 4-(3-(2-(((1r,4r)-4-Aminocyclohexyl)amino)-5-methylpyrimidin-4-yl)imidazo[1,2-a]pyridin-6-yl)-N,N-dimethylbenzenesulfonamide] registered a GI50 in assay [1] of 0.025 ± 0.009 µM. The remaining activity at 10 µM in assay [2] stood at 63%; in assay [3], 87%; in assay [4], 72%; in assay [5] it was 60%; in assay [7] it was 87%. In addition, the inhibition constant (Ki) in assay [6] is 0.497 µM.

As for `N[C@H]1CC[C@H](Nc2ncc(F)c(-c3cnc4ccc(Nc5ccccc5)cn34)n2)CC1` [Compound 6, (1r,4r)-N^1-(5-Fluoro-4-(6-(phenylamino)imidazo[1,2-a]pyridin-3-yl)pyrimidin-2-yl)cyclohexane-1,4-diamine], halving of growth in assay [1] (GI50) required 0.002 ± 0.0005 µM. Further, the remaining activity at 10 µM in assay [2] amounted to 11%; in assay [7] it was 16%. In addition, the Ki in assay [3] amounted to 0.013 µM; in assay [4] it was 0.009 µM; in assay [5] it was 0.016 µM; in assay [6], 0.003 µM.

In assay [1], `Cc1cnc(N[C@H]2CC[C@H](NC3CCN(C)CC3)CC2)nc1-c1cnc2ccc(-c3ccccc3)cn12` [Compound 90, (1r,4r)-N^1-(5-Methyl-4-(6-phenylimidazo[1,2-a]pyridin-3-yl)pyrimidin-2-yl)-N4-(1-methylpiperidin-4-yl) cyclohexane-1,4-diamine] came in with a GI50 of 0.229 ± 0.015 µM. Also, the remaining activity at 10 µM in assay [2] was found to be 24%; in assay [3] it was 57%; in assay [4], 44%; in assay [7], 80%. For the same compound, the residual activity at 10 µM in assay [5] is 295%. In assay [6], the Ki was found to be 0.211 µM.

In assay [1], `Cc1cnc(N[C@H]2CC[C@H](N)CC2)nc1-c1cnc2cc(C(F)(F)F)c(Br)cn12` [Compound 114, (1r,4r)-N^1-(4-(6-Bromo-7-(trifluoromethyl)imidazo [1,2-a]pyridin-3-yl)-5-methylpyrimidin-2-yl) cyclohexane-1,4-diamine] registered a 50% growth inhibitory concentration (GI50) of 0.026 ± 0.009 µM. In addition, the remaining activity at 10 µM in assay [2] is 8%; in assay [3], 53%; in assay [4], 28%; in assay [7], 40%. Besides, the Ki in assay [5] worked out at 0.075 µM; in assay [6] it was 0.005 µM.

For the compound `Cc1cnc(NC2CCCC(N)C2)nc1-c1cnc2ccc(-c3ccccc3)cn12` (centres unmarked) [Compound 94, N^1-(5-Methyl-4-(6-phenylimidazo[1,2-a]pyridin-3-yl)pyrimidin-2-yl)cyclohexane-1,3-diamine], in assay [1], the GI50 was found to be 0.748 ± 0.063 µM. Besides, the remaining activity at 10 µM came out at 25% in assay [2]; 20% in assay [3]; 12% in assay [4]; 10% in assay [5]; 45% in assay [7]. For the same compound, the inhibition constant Ki in assay [6] turned out to be 0.388 µM.

In assay [1], `N[C@H]1CC[C@H](Nc2ncc(Cl)c(-c3cnc4c(-c5cccnc5)cc(C(F)(F)F)cn34)n2)CC1` [Compound 86, (1r,4r)-N^1-(5-Chloro-4-(8-(pyridin-3-yl)-6-(trifluoromethyl)imidazo[1,2-a]pyridin-3-yl)pyrimidin-2-yl)cyclohexane-1,4-diamine] returned a GI50 of 0.086 ± 0.005 µM. Also, the remaining activity at 10 µM is 25% in assay [2] and 47% in assay [7]. The Ki in assay [3] turned out to be 2.64 µM; in assay [4] it was 0.25 µM; in assay [5], 0.044 µM; in assay [6] it was 0.216 µM.

`N[C@H]1CC[C@H](Nc2ncc(F)c(-c3cnc4ccc(-c5ccc(C(=O)N6CCNCC6)cc5)cn34)n2)CC1` [Compound 117, (4-(3-(2-(((1r,4r)-4-Aminocyclohexyl)amino)-5-fluoropyrimidin-4-yl)imidazo[1,2-a]pyridin-6-yl)phenyl) (piperazin-1-yl)methanone] gave a concentration for 50% growth inhibition (GI50) in assay [1] of 0.045 ± 0.004 µM. The remaining activity at 10 µM worked out at 0% in assay [2]; 10% in assay [3]; 4% in assay [4]; 5% in assay [5]; 12% in assay [7]. Moreover, in assay [6], the Ki came to 0.004 µM.

In the case of `Cc1cnc(N[C@H]2CC[C@H](N)CC2)nc1-c1cnc2cc(Nc3cccnc3)ccn12` [Compound 55, (1r,4r)-N^1-(5-Methyl-4-(7-(pyridin-3-ylamino)imidazo [1,2-a]pyridin-3-yl)pyrimidin-2-yl)cyclohexane-1,4-diamine], the GI50 in assay [1] amounted to 0.558 ± 0.13 µM. Also, the remaining activity at 10 µM was determined as 5% in assay [2]; 24% in assay [3]; 5% in assay [4]; 8% in assay [5]; 2% in assay [7]. In addition, the inhibition constant (Ki) in assay [6] stood at 0.069 µM.

The compound `Cc1cnc(NC2CCOCC2)nc1-c1cnc2ccc(Nc3cncnc3)cn12` [Compound 104, 3-(5-Methyl-2-((tetrahydro-2H-pyran-4-yl)amino)pyrimidin-4-yl)-N-(pyrimidin-5-yl)imidazo[1,2-a]pyridin-6-amine] displayed a GI50 in assay [1] of 4.76 ± 1.16 µM. Also, the remaining activity at 10 µM in assay [2] amounted to 70%; in assay [3], 4%; in assay [4], 2%; in assay [5], 57%; in assay [7] it was 73%. The inhibition constant (Ki) in assay [6] was determined as 0.155 µM.
